Test results published in the NIST ThermoML archive (doi:10.1021/je100765j).
± gives the expanded uncertainty stated by the source.

Assay: xn = mol fraction of the nth substance listed
Conditions: 101 kPa, Liquid; for speed of sound: Sing-around technique in a fixed-path interferometer

CCC(C)Cl (centres undefined) [2-chlorobutane] + CC(C)OC(C)C
Conditions | mass density [kg/m3] | speed of sound [m/s]
283.15 K, x1 = 0.0519 | 740.159 ± 0.91 | 1068.8 ± 1.1
283.15 K, x1 = 0.0988 | 745.897 ± 0.89 | 1071.7 ± 1.1
283.15 K, x1 = 0.2006 | 758.792 ± 0.87 | 1078 ± 1.1
283.15 K, x1 = 0.3211 | 774.756 ± 0.83 | 1085.4 ± 1.1
283.15 K, x1 = 0.4201 | 788.575 ± 0.81 | 1091.5 ± 1.1
283.15 K, x1 = 0.532 | 804.971 ± 0.77 | 1098.5 ± 1.2
283.15 K, x1 = 0.6244 | 819.223 ± 0.75 | 1104.3 ± 1.2
283.15 K, x1 = 0.726 | 835.602 ± 0.71 | 1110.7 ± 1.2
283.15 K, x1 = 0.8163 | 850.907 ± 0.68 | 1116.3 ± 1.2
283.15 K, x1 = 0.8817 | 862.411 ± 0.66 | 1120.4 ± 1.2
283.15 K, x1 = 0.9634 | 877.39 ± 0.63 | 1125.5 ± 1.2
288.15 K, x1 = 0.0519 | 734.981 ± 0.92 | 1046.5 ± 1.1
288.15 K, x1 = 0.0988 | 740.712 ± 0.9 | 1049.4 ± 1.1
288.15 K, x1 = 0.2006 | 753.569 ± 0.88 | 1055.8 ± 1.1
288.15 K, x1 = 0.3211 | 769.483 ± 0.85 | 1063.4 ± 1.1
288.15 K, x1 = 0.4201 | 783.251 ± 0.82 | 1069.7 ± 1.1
288.15 K, x1 = 0.532 | 799.602 ± 0.79 | 1076.9 ± 1.1
288.15 K, x1 = 0.6244 | 813.814 ± 0.76 | 1082.9 ± 1.1
288.15 K, x1 = 0.726 | 830.144 ± 0.72 | 1089.5 ± 1.1
288.15 K, x1 = 0.8163 | 845.414 ± 0.69 | 1095.4 ± 1.2
288.15 K, x1 = 0.8817 | 856.901 ± 0.67 | 1099.6 ± 1.2
288.15 K, x1 = 0.9634 | 871.819 ± 0.64 | 1104.9 ± 1.2
293.15 K, x1 = 0.0519 | 729.792 ± 0.93 | 1024 ± 1.1
293.15 K, x1 = 0.0988 | 735.485 ± 0.92 | 1027.1 ± 1.1
293.15 K, x1 = 0.2006 | 748.303 ± 0.89 | 1033.7 ± 1.1
293.15 K, x1 = 0.3211 | 764.161 ± 0.86 | 1041.4 ± 1.1
293.15 K, x1 = 0.4201 | 777.889 ± 0.83 | 1047.9 ± 1.1
293.15 K, x1 = 0.532 | 794.197 ± 0.8 | 1055.3 ± 1.1
293.15 K, x1 = 0.6244 | 808.369 ± 0.77 | 1061.5 ± 1.1
293.15 K, x1 = 0.726 | 824.657 ± 0.73 | 1068.3 ± 1.1
293.15 K, x1 = 0.8163 | 839.877 ± 0.7 | 1074.4 ± 1.1
293.15 K, x1 = 0.8817 | 851.332 ± 0.68 | 1078.7 ± 1.1
293.15 K, x1 = 0.9634 | 866.214 ± 0.65 | 1084.3 ± 1.1
298.15 K, x1 = 0.0519 | 724.535 ± 0.94 | 1001.8 ± 1.1
298.15 K, x1 = 0.0988 | 730.22 ± 0.93 | 1004.9 ± 1.1
298.15 K, x1 = 0.2006 | 742.995 ± 0.9 | 1011.5 ± 1.1
298.15 K, x1 = 0.3211 | 758.802 ± 0.87 | 1019.4 ± 1.1
298.15 K, x1 = 0.4201 | 772.485 ± 0.84 | 1026.1 ± 1.1
298.15 K, x1 = 0.532 | 788.75 ± 0.81 | 1033.8 ± 1.1
298.15 K, x1 = 0.6244 | 802.882 ± 0.78 | 1040.2 ± 1.1
298.15 K, x1 = 0.726 | 819.123 ± 0.75 | 1047.2 ± 1.1
298.15 K, x1 = 0.8163 | 834.307 ± 0.72 | 1053.5 ± 1.1
298.15 K, x1 = 0.8817 | 845.724 ± 0.69 | 1057.9 ± 1.1
298.15 K, x1 = 0.9634 | 860.57 ± 0.66 | 1063.7 ± 1.1
303.15 K, x1 = 0.0519 | 719.276 ± 0.95 | 979.57 ± 1.1
303.15 K, x1 = 0.0988 | 724.919 ± 0.94 | 982.73 ± 1.1
303.15 K, x1 = 0.2006 | 737.649 ± 0.91 | 989.5 ± 1.1
303.15 K, x1 = 0.3211 | 753.411 ± 0.88 | 997.66 ± 1.1
303.15 K, x1 = 0.4201 | 767.06 ± 0.85 | 1004.4 ± 1.1
303.15 K, x1 = 0.532 | 783.263 ± 0.82 | 1012.3 ± 1.1
303.15 K, x1 = 0.6244 | 797.355 ± 0.79 | 1018.8 ± 1.1
303.15 K, x1 = 0.726 | 813.555 ± 0.76 | 1026.1 ± 1.1
303.15 K, x1 = 0.8163 | 828.698 ± 0.73 | 1032.6 ± 1.1
303.15 K, x1 = 0.8817 | 840.084 ± 0.7 | 1037.2 ± 1.1
303.15 K, x1 = 0.9634 | 854.895 ± 0.68 | 1043.2 ± 1.1
308.15 K, x1 = 0.0519 | 713.939 ± 0.96 | 957.51 ± 1.1
308.15 K, x1 = 0.0988 | 719.569 ± 0.95 | 960.7 ± 1.1
308.15 K, x1 = 0.2006 | 732.261 ± 0.92 | 967.56 ± 1.1
308.15 K, x1 = 0.3211 | 747.973 ± 0.89 | 975.92 ± 1.1
308.15 K, x1 = 0.4201 | 761.571 ± 0.86 | 982.81 ± 1.1
308.15 K, x1 = 0.532 | 777.737 ± 0.83 | 990.84 ± 1.1
308.15 K, x1 = 0.6244 | 791.784 ± 0.8 | 997.54 ± 1.1
308.15 K, x1 = 0.726 | 807.944 ± 0.77 | 1005 ± 1.1
308.15 K, x1 = 0.8163 | 823.046 ± 0.74 | 1011.6 ± 1.1
308.15 K, x1 = 0.8817 | 834.402 ± 0.72 | 1016.4 ± 1.1
308.15 K, x1 = 0.9634 | 849.179 ± 0.69 | 1022.6 ± 1.1
313.15 K, x1 = 0.0519 | 708.573 ± 0.97 | 935.64 ± 1.1
313.15 K, x1 = 0.0988 | 714.181 ± 0.96 | 938.87 ± 1.1
313.15 K, x1 = 0.2006 | 726.833 ± 0.93 | 945.88 ± 1.1
313.15 K, x1 = 0.3211 | 742.484 ± 0.9 | 954.34 ± 1.1
313.15 K, x1 = 0.4201 | 756.049 ± 0.87 | 961.42 ± 1.1
313.15 K, x1 = 0.532 | 772.166 ± 0.84 | 969.67 ± 1.1
313.15 K, x1 = 0.6244 | 786.18 ± 0.81 | 976.57 ± 1.1
313.15 K, x1 = 0.726 | 802.287 ± 0.78 | 984.26 ± 1.1
313.15 K, x1 = 0.8163 | 817.349 ± 0.75 | 991.15 ± 1.1
313.15 K, x1 = 0.8817 | 828.683 ± 0.73 | 996.09 ± 1.1
313.15 K, x1 = 0.9634 | 843.442 ± 0.7 | 1002.5 ± 1.1
